Assays:
[1] = tested on: HBV viral production in AD38 cells; assay: Viral load production in AD38 cells by quantitative PCR of the HBV core sequence in supernatant; type: cell-based; details: 10 μM compound, 6 days at 37° C., viral load in supernatant compared against DMSO control wells; for activity at 10 µM: Hepatitis B virus, 144 h, read-out: AD38 Viral Load (CpAM/DMSO %) at 10 μM
In short: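 AD38 cells seeded at 50,000/well, treated 6 days at 37° C with compound added as 10× solution in 10% DMSO. HBV core sequence in clarified supernatant quantified by TaqMan qPCR against known standards; viral load compared with DMSO control wells.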

AD38 cells = assay: Viability of AD38 cells (Promega CellTiter-Glo) at the end of compound treatment; type: cell-based; details: 10 μM compound, 6 days, luminescence normalized against DMSO control wells (controls being 100%)
In short: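 AD38 cells seeded at 50,000/well received compound from a 10× solution in 10% DMSO and were incubated 6 days at 37° C. Viability was then read by CellTiter-Glo luminescence in tetracycline-free medium with 2% FBS and 1% DMSO, normalized to DMSO control wells (100%) and reported as percent viability.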

| Compound | activity at 10 µM [1] | AD38 Viability Normalized Result (CPAM/DMSO %) at 10 μM (AD38 cells) | AD38 Viral Load (CpAM/DMSO %) at 10 μM [1] |
| --- | --- | --- | --- |
| O=C(Nc1ccncn1)c1ccc2c(c1)NC(=O)c1cc(F)ccc1S2 [Compound 1344] | 96% | 102% | – |
| O=C(Nc1cncc(Cl)c1)c1ccc2c(c1)NC(=O)c1cc(F)ccc1S2 [Compound 1345] | 115% | 93% | – |
| CC(C)(C)OC(=O)C(Cc1cncnc1)NC(=O)c1ccc2c(c1)NC(=O)c1cc(F)ccc1S2 (stereo not drawn) [Compound 1346, Tert-Butyl 2-(2-fluoro-11-oxo-10, 11-dihydrodibenzo [b,f] [1,4]thiazepine-8-carboxamido)-3-(pyrimidin-5-yl) propanoate] | – | 97% | 105% |
| O=C(NCc1cncnc1)c1ccc2c(c1)NC(=O)c1ccc(F)cc1S2 [Compound 1347] | 3% | 94% | – |
| O=C(NCCc1ccccn1)c1ccc2c(c1)NC(=O)c1ccc(F)cc1S2 [Compound 1348] | 0% | 107% | – |
| O=C(NCc1cnco1)c1ccc2c(c1)NC(=O)c1ccc(F)cc1S2 [Compound 1349] | 12% | 102% | – |
| O=C(Nc1ncco1)c1ccc2c(c1)NC(=O)c1cc(F)ccc1S2 [Compound 1353] | 50% | 97% | – |
| O=C(Nc1nc2ccccc2o1)c1ccc2c(c1)NC(=O)c1cc(F)ccc1S2 [Compound 1354] | 98% | 70% | – |
| O=C(NCc1cncs1)c1ccc2c(c1)NC(=O)c1ccc(F)cc1S2 [Compound 1356] | 3% | 101% | – |
| O=C1Nc2cc(CNCCc3ccccc3)ccc2Sc2ccccc21 [Compound 1357, 8-((phenethylamino)methyl) dibenzo [b,f] [1,4] thiazepin-11(10H)-one] | 39% | 115% | – |
| O=C(Nc1cccc(-c2ccccc2)c1)c1ccc2c(c1)NC(=O)c1ccc(F)cc1S2 [Compound 1358] | 15% | 72% | – |
| O=C(NC(CO)Cc1cncnc1)c1ccc2c(c1)NC(=O)c1cc(F)ccc1S2 (stereo not drawn) [Compound 1361, 2-fluoro-N-(1-hydroxy-3-(pyrimidin-5-yl)propan-2-yl)-11-oxo-10, 11-dihydrodibenzo [b,f] [1,4] thiazepine-8-carboxamide] | 79% | 113% | – |
| O=C(NCCc1cncnc1)c1ccc2c(c1)NC(=O)c1ccc(F)cc1S2 [Compound 1362] | 19% | 98% | – |
| O=C(NCc1cccnc1)c1ccc2c(c1)NC(=O)c1cc(F)ccc1S2 [Compound 1364] | 1% | 102% | – |
| O=C(NCc1cccnc1)c1ccc2c(c1)NC(=O)c1ccc(F)cc1S2 [Compound 1365] | 2% | 105% | – |
| O=C(Nc1ccncc1)c1ccc2c(c1)NC(=O)c1ccc(F)cc1S2 [Compound 1366] | 12% | 93% | – |
| CC(=O)N(CCc1ccccc1)Cc1ccc2c(c1)NC(=O)c1ccccc1S2 [Compound 1367, N-((11-oxo-10, 11-dihydrodibenzo [b,f] [1,4]thiazepin-8-yl)methyl)-N-phenethyl acetamide] | 33% | 88% | – |
| O=C(NCCc1ccc(-c2ccccc2)cc1)c1ccc2c(c1)NC(=O)c1cc(F)ccc1S2 [Compound 1370] | 5% | 94% | – |
| O=C(NCCc1ccc(-c2ccccc2)cc1)c1ccc2c(c1)NC(=O)c1ccc(F)cc1S2 [Compound 1371] | 6% | 94% | – |
| O=C(NCc1cncnc1)c1ccc2c(c1)NC(=O)c1ccccc1[S+]2[O-] (stereo not drawn) [Compound 1373] | 10% | 100% | – |
| O=C(NCCc1ccccn1)c1ccc2c(c1)NC(=O)c1ccccc1[S+]2[O-] (stereo not drawn) [Compound 1374] | 1% | 98% | – |
| O=C(Nc1cccc(-c2ccccc2)c1)c1ccc2c(c1)NC(=O)c1ccccc1[S+]2[O-] (stereo not drawn) [Compound 1375] | 11% | 89% | – |
| O=C(NCCc1cccnc1)c1ccc2c(c1)NC(=O)c1cc(F)ccc1S2 [Compound 1376] | 3% | 63% | – |
| O=C(NCCc1cccnc1)c1ccc2c(c1)NC(=O)c1ccc(F)cc1S2 [Compound 1377] | 5% | 65% | – |
| O=C(NCc1cnco1)c1ccc2c(c1)NC(=O)c1ccccc1[S+]2[O-] (stereo not drawn) [Compound 1381] | 40% | 93% | – |
| O=C(Nc1ccncc1)c1ccc2c(c1)NC(=O)c1ccccc1[S+]2[O-] (stereo not drawn) [Compound 1382] | 47% | 117% | – |

| Compound | activity at 10 µM [1] | AD38 Viability Normalized Result (CPAM/DMSO %) at 10 μM (AD38 cells) | AD38 Viral Load (CpAM/DMSO %) at 10 μM [1] |
| --- | --- | --- | --- |
| O=C(NCCc1ccccn1)c1ccc2c(c1)NC(=O)c1cccc(F)c1S2 [Compound 1383] | 1% | 87% | – |
| CN(C)S(=O)(=O)c1ccc(CCNC(=O)c2ccc3c(c2)NC(=O)c2cc(F)ccc2S3)cc1 [Compound 1384] | 4% | 79% | – |
| O=C(Nc1cccc(-c2ccccn2)c1)c1ccc2c(c1)NC(=O)c1cc(F)ccc1S2 [Compound 1385] | 26% | 51% | – |
| O=C(Nc1cccc(-c2cnco2)c1)c1ccc2c(c1)NC(=O)c1cc(F)ccc1S2 [Compound 1386] | 61% | 95% | – |
| CN(C)S(=O)(=O)c1ccc(CCNC(=O)c2ccc3c(c2)NC(=O)c2ccc(F)cc2S3)cc1 [Compound 1387] | 2% | 78% | – |
| O=C(NCc1cncs1)c1ccc2c(c1)NC(=O)c1ccccc1[S+]2[O-] (stereo not drawn) [Compound 1388] | 5% | 71% | – |
| O=C(NCCc1cccnc1)c1ccc2c(c1)NC(=O)c1ccccc1[S+]2[O-] (stereo not drawn) [Compound 1389] | 15% | 89% | – |
| O=C(NCc1cncnc1)c1ccc2c(c1)NC(=O)c1cccc(F)c1S2 [Compound 1390] | 2% | 92% | – |
| O=C(NCCc1cccnc1)c1ccc2c(c1)NC(=O)c1cccc(F)c1S2 [Compound 1391] | 2% | 71% | – |
| O=C(NCc1cccnc1)c1ccc2c(c1)NC(=O)c1cccc(F)c1S2 [Compound 1392] | 2% | 85% | – |
| O=C(Nc1ccncc1)c1ccc2c(c1)NC(=O)c1cccc(F)c1S2 [Compound 1393] | 41% | 87% | – |
| O=C(NCCc1ccccn1)c1cc2c(cc1F)Sc1ccccc1C(=O)N2 [Compound 1394] | 55% | 94% | – |
| O=C(NCCc1cccnc1)c1cc2c(cc1F)Sc1ccccc1C(=O)N2 [Compound 1395] | 64% | 79% | – |
| O=C(NCc1cccnc1)c1cc2c(cc1F)Sc1ccccc1C(=O)N2 [Compound 1396] | 63% | 95% | – |
| COCC(Cc1cncnc1)NC(=O)c1ccc2c(c1)NC(=O)c1cc(F)ccc1S2 (stereo not drawn) [Compound 1397] | 73% | 95% | – |
| CN(C)S(=O)(=O)c1ccc(CCCNC(=O)c2ccc3c(c2)NC(=O)c2ccc(F)cc2S3)cc1 [Compound 1398] | 5% | 60% | – |
| O=C1Nc2cc(S(=O)(=O)N3CCCCC3)ccc2Sc2ccccc21 [Compound 1399] | 105% | 92% | – |
| O=C(Nc1cccc(-c2cccnc2)c1)c1ccc2c(c1)NC(=O)c1cc(F)ccc1S2 [Compound 1400] | 34% | 105% | – |
| O=C(NCCc1cnco1)c1ccc2c(c1)NC(=O)c1ccc(F)cc1S2 [Compound 1402] | 12% | 81% | – |
| O=C(NCCc1cncs1)c1ccc2c(c1)NC(=O)c1ccc(F)cc1S2 [Compound 1403] | 15% | 82% | – |
| CCOC(=O)C(NC(=O)c1ccc2c(c1)NC(=O)c1cc(F)ccc1S2)c1ccncc1 (stereo not drawn) [Compound 1405] | 14% | 94% | – |
| O=C(NCc1cncs1)c1ccc2c(c1)NC(=O)c1cccc(F)c1S2 [Compound 1407] | 3% | 103% | – |
| O=C(NCc1cnco1)c1ccc2c(c1)NC(=O)c1cccc(F)c1S2 [Compound 1408] | 17% | 94% | – |
| O=C(NCCc1cncnc1)c1ccc2c(c1)NC(=O)c1cccc(F)c1S2 [Compound 1409] | 4% | 83% | – |
| O=C(Nc1cccc(-c2ccccc2)c1)c1ccc2c(c1)NC(=O)c1cccc(F)c1S2 [Compound 1410] | 35% | 50% | – |

— patent publication US10183936B2, “Hepatitis B core protein allosteric modulators” (priority 2014, dated 2019)
